From patent US11976280B2, “SMAC/Diablo inhibitors useful for treating cancer” (THE NATIONAL INSTITUTE FOR BIOTECHNOLOGY IN THE NEGEV LTD., priority 2017, dated 2024)
d = 2'-deoxy (DNA); r = 2'-OH (RNA)

Tested on: A549 cells-derived tumors
Assay: Next-generation sequencing (NGS) of si-NT- and si-hSMAC-A-treated tumors
Type: in vivo, human
Experimental: Libraries were prepared by the INCPM-RNA-seq unit (Weizmann Institute, Israel). Briefly, polyA fraction (mRNA) was purified from 500 ng of total RNA, isolated as above, followed by fragmentation and generation of double stranded cDNA. End repair, a base addition, adapter ligation and PCR amplification steps were performed according to established methods. Libraries were evaluated by Qubit and TapeStation. Sequencing libraries were constructed with barcodes to allow multiplexing of 20 samples in one lane. Between 22 and 26 million reads single-end 60-bp reads were sequenced per sample on Illumina HiSeq 2500 V4 instrument.
Bioinformatics analyses were carried out at the Bioinformatics Core Facility at the National Institute for Biotechnology in the Negev, Ben-Gurion University. Raw sequence reads were assessed for quality using FASTQC and further trimmed for removal of remaining adaptors and low quality bases using Trimmomatic. The trimmed reads from each sample were separately aligned to the human and mouse genomes (GRCh38 and GRCm38.75, respectively) using STAR v2.3.0 with default settings. An average of 23.7±0.8 million reads per sample was obtained. Of these, an average of 13, 2.6, 7.8 and 0.3 million reads were mapped to human only, mouse only, both human and mouse, and none of them, respectively. After rejection of multi-mapped reads, a total of 11.5±2.5 human-specific, uniquely mapped reads, and 2.3±1.7 mouse-specific, uniquely mapped reads were subjected for further analysis. The number of aligned reads per gene per sample were counted using HTSeq count with “intersection-nonempty” (to handle reads that overlap with more than one gene) and “no stranded” as parameters. The other parameters were set to their default. Normalization and statistical analysis for differential expression were carried out using DESeq2 v1.6.3. Fold change values were converted to linear scale, with a minus sign indicating down-regulation.
Differentially expressed genes were defined as those having a p-value<0.05, and linear fold change>1.5 and <−1.5. Functional analysis was performed using the Gene Ontology system, DAVID and Expander software tools.
NGS was used to investigate changes in patterns of gene expression in si-NT-TTs and si-hSMAC-A-TTs (FIG. 10, and Tables 3-5). […] As si-hSMAC is human-specific, any effect on mouse gene expression must be mediated by the human tumor cells.
The major functional groups were changes were seen are presented below.

[1] = vs si-NT-TTs, EXTRACELLULAR MATRIX
[2] = vs si-NT-TTs, EXTRACELLULAR SPACE
[3] = vs si-NT-TTs, METABOLISM RELATED ENZYMES
[4] = vs si-NT-TTs, METABOLISM RELATED ENZYMES, listed as si-SMAC
[5] = vs si-NT-TTs, REDOX STATE REGULATION

## si-hSMAC-A: siRNA to human SMAC/Diablo; sense 5′AAGCGGUGUUUCUCAGAAUUGtt3′ (SEQ ID NO:20), antisense 5′AACAAUUCUGAGAAACCCGCtt3′ (SEQ ID NO:21) (sense AAGCGGUGUUUCUCAGAAUUGTT; antisense AACAAUUCUGAGAAACCCGCTT; sense: sugars from the 5' end r21 d2, backbone not given here; antisense: sugars from the 5' end r20 d2, backbone not given here)
[1]
  Fold change FBN1: −1.7 fold
  Fold change GPC6: −1.8 fold
  Fold change MMP2: −2.9 fold
  Fold change NLGN2: −1.8 fold
  Fold change SMOC1: −1.6 fold
  Fold change TGFBI: −1.9 fold
  Fold change VCAN: −1.5 fold
  Fold change VTN: −1.6 fold
[2]
  Fold change CCL24: 1.9 fold
  Fold change CCL28: 1.9 fold
  Fold change CPM: −1.7 fold
  Fold change CX3CL1: 1.6 fold
  Fold change IGFBP1: −1.6 fold
  Fold change IGFBP3: −1.8 fold
  Fold change LGALS3: 1.6 fold
  Fold change MST1: −1.6 fold
  Fold change PROC: 1.8 fold
  Fold change SPINK1: 1.9 fold
  Fold change SPINT1: 1.7 fold
  Fold change WISP2: −1.7 fold
[3]
  Fold change ACSLA (acyl-CoA synthetase long-chain family member 4): −1.6 fold
  Fold change ADARB1: −2.1 fold
  Fold change ADH4: −2.6 fold
  Fold change ADI1: 1.8 fold
  Fold change AGPAT2: 1.6 fold
  Fold change B3GNT6: 2.1 fold
  Fold change BLVRA: 1.7 fold
  Fold change CAD: −1.6 fold
  Fold change CDA: 2.0 fold
  Fold change CMAS: 1.5 fold
  Fold change DGAT2: 4.9 fold
  Fold change DGKD: −1.5 fold
  Fold change DHRS9: 2.8 fold
  Fold change ELOVL3: 7.4 fold
  Fold change ELOVL4: 145.2 fold
  Fold change ENTPD8: 2.7 fold
  Fold change FAR2: 4.1 fold
  Fold change FASN: −1.5 fold
  Fold change FAXDC2: 2.1 fold
  Fold change FUT3: 2.7 fold
  Fold change FUT6: 1.8 fold
  Fold change GALNT5: 1.6 fold
  Fold change GALNT6: 1.9 fold
  Fold change GALNT12: 1.6 fold
  Fold change GCNT3: 1.7 fold
  Fold change GPT2: 1.5 fold
  Fold change LIPH: 1.9 fold
  Fold change MGAT4B: 1.5 fold
  Fold change ORMDL2: 1.5 fold
  Fold change PADI1: 3.8 fold
  Fold change PCK1: −6.9 fold
  Fold change PLCB4: 1.7 fold
  Fold change SDR16C5: 3.0 fold
  Fold change ST3GAL4: 1.5 fold
  Fold change ST6GALNAC1: 1.6 fold
  Fold change STARD10: 3.7 fold
[4]
  Fold change ELOVL3: 7 fold
  Fold change ELOVL4: 145 fold
Vs si-NT-TTs, Mitochondria
  Fold change ANXA10: −1.7 fold
  Fold change BIK: 2.1 fold
  Fold change C10orf2 (TWINK): −1.9 fold
  Fold change CHCHD7: 1.6 fold
  Fold change CPS1: −4.8 fold
  Fold change CYP24A1: −1.9 fold
  Fold change ENDOG: 1.8 fold
  Fold change MT-ND4L: −1.9 fold
  Fold change MT-ND5: −1.6 fold
  Fold change MYO19: −1.6 fold
  Fold change STARD13: −2.2 fold
[5]
  Fold change GSTP1: −1.6 fold
  Fold change NOS1: −5.9 fold
  Fold change PXDN: 3.3 fold
  Fold change SOD2: −1.9 fold
  Fold change TXN: 2.1 fold
Vs si-NT-TTs, TRANSPORTERS
  Fold change ANO1: 3.4 fold
  Fold change ATP10B: 25.5 fold
  Fold change CRACR2A: 3.2 fold
  Fold change GLTP: 1.8 fold
  Fold change KCNK1: 1.7 fold
  Fold change KCNN4: 1.8 fold
  Fold change SCNN1A: 1.9 fold
  Fold change SLC4A4: −3.3 fold
  Fold change SLC6A9: −1.7 fold
  Fold change SLC24A1: −1.6 fold
  Fold change SLC25A37: −1.5 fold
  Fold change SLC44A4: 2.2 fold
  Fold change SLC45A3: 1.8 fold
  Fold change SLCO2B1: −2.8 fold
  Fold change TMC4: 6.3 fold
  Fold change TMC8: 2.4 fold
Vs si-NT-TTs, TRANSPORTERS, listed as si-SMAC
  Fold change ATP10B: 25 fold
≥1.5-fold change, adjusted P value<0.05, human and murine
  number of genes with significant changes: 848
